Experimental data published in patent publication US5891882A, “Benzopyranopyrrole and benzopyranopyridine α-1 adenergic compounds” (priority 1997, dated 1999).
pKi: −log10 of the molar value. Where a name gives a salt, the structure may show the parent alone. Read-outs that look alike come from different tables or passages of the source.

Tests used:
[1] = target: T1, α-1a adrenoreceptor (bovine) (Bos taurus, UniProt P18130); test: In vitro [3H]-prazosin radioligand binding, cloned α-1a adrenoreceptor expressed in LTK cells; conditions: for Ki: cloned bovine α-1a in LTK cells, [3H]prazosin 0.2 nM, read-out: Radioligand Binding (Ki; nM) 1a (Bovine)
T1 construct: expressed in transfected cells; cDNA from TULCO; membranes
T1 sequence (P18130 1-466): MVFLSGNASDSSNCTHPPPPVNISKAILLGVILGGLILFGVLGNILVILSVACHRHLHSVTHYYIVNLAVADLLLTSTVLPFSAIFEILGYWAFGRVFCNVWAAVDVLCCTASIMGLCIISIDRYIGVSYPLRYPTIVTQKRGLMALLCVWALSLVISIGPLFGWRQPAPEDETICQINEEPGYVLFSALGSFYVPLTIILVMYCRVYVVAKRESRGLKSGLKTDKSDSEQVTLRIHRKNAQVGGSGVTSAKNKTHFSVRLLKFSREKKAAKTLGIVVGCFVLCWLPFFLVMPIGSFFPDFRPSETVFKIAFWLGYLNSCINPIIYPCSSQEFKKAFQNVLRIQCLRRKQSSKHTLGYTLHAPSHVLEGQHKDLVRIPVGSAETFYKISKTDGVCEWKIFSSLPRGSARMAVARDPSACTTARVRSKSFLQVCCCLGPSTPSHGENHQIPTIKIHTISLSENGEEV
From the text: The cDNA clones encoding the α-1 adrenoreceptors (α-1a, α-1b, and α-1d) were obtained from TULCO (Triangle Universities Licensing Consortium, Research Triangle Park, N.C.) and inserted into the eukaryotic expression vector SnaB30. In this vector, expression of the adrenoreceptor gene is under the transcriptional control of an SV40 early promoter. Positive drug selection is provided by a neomycin-resistance gene. Mouse fibroblast cells (LTK) were transfected with the α1 expression plasmids and grown in Dulbecco's modified Eagle's medium (DMEM) containing 10% fetal calf serum and […]. Stable G418-resistant parental lines were generated, with successful expression of adrenoreceptor protein monitored using radioligand binding techniques. Stable single cell clones derived from the parental lines were screened in adrenoreceptor binding assays to identify clones having high adrenoreceptor density. Roller bottle cultures of the cloned lines were used to provide cell membranes for subsequent adrenoreceptor binding characterization studies. A cell line containing the SnaB30 vector expressing the human erythropoietin gene served as a negative control.
For adrenoreceptor binding assays, large scale membrane preparations were utilized in which 6 million cells were seeded into small (450 cm^2) Corning tissue culture roller bottles. 200 mL of DMEM containing 10% fetal calf serum and 300 μM G418 were added to each roller bottle. A 95% air/5% CO2 gas mixture (sterile) was injected into each roller bottle prior to sealing. The bottles were then incubated at 37° C. on a roller rack for 5 days. Cells were re-fed with fresh medium after 3 days in culture.
On the fifth day of culture, growth medium was removed from cells grown in roller bottles, and the cells were washed twice with PBS (Sigma, 120 mM NaCl, 2.7 mM KCl, 10 mM Na2 HPO4 --NaH2 PO4, pH=7.4). Cells were detached from the roller bottles by incubating for 15 minutes at 37° C. in a Tris-EDTA solution (10 mM Tris, 100 mM NaCl, 1 mM EDTA, pH=7.4). The cell suspension from each roller bottle was decanted into tared centrifuge tubes and kept on ice. An aliquot of each cell suspension was generally taken for cell counting. Cells were centrifuged at 3000×G for 5 min at 2°-4° C., washed with PBS and recentrifuged. The supernatant was decanted and the pellet weighed to determine the wet weight of cells. Cells were washed a final time in 40 vol 5 mM Tris-HCl, 5 mM EDTA, pH=7.7, and centrifuged at 40,000×G for 10 minutes. Cells were homogenized in 10 mL of 50 mM Tris-HCl, 5 mM EDTA (pH=7.4) and diluted to 40 mL/tube. Homogenates were centrifuged at 40,000×G for 10 minutes. The supernatant was decanted and the pellets rehomogenized in 50 mM Tris-HCl (pH=7.4) and centrifuged as before. The supernatant was decanted and the homogenate resuspended in 6.25 volumes (per gram wet weight) of 50 mM Tris-HCl and aliquots of the pooled homogenates frozen in liquid N2 and stored at -70° C. until the time of assay. Rat submaxillary glands were used for α-1A adrenoreceptors and were prepared essentially as described (Michel, A. D., Loury, D. N. and Whiting, R. L., Brit. J. Pharmacol. 98: 83-889 (1989)).
Receptor binding assays for α-1 adrenoreceptors were performed essentially as described by Greengrass and Bremner (Eur. J. Pharmacol. 55: 323-326 (1979)). […] Radioactivity was determined by standard liquid scintillation techniques. Data were analyzed as previously described (Hancock, A. A., Kyncl, J. J., Martin, Y. C. and DeBernardis, J. F., J Receptor Res. 8: 23-46 (1988)).

[2] = target: T2, α-1A adrenoreceptor (canine prostate smooth muscle) (Canis lupus, UniProt A0A8I3NK63); test: Functional antagonism: inhibition of phenylephrine-induced contraction of canine prostate strips; assay type: cell-based; conditions: Schild plot
T2 construct: antagonism of phenylephrine-induced contraction (pA2, Schild)
T2 sequence (A0A8I3NK63 1-466): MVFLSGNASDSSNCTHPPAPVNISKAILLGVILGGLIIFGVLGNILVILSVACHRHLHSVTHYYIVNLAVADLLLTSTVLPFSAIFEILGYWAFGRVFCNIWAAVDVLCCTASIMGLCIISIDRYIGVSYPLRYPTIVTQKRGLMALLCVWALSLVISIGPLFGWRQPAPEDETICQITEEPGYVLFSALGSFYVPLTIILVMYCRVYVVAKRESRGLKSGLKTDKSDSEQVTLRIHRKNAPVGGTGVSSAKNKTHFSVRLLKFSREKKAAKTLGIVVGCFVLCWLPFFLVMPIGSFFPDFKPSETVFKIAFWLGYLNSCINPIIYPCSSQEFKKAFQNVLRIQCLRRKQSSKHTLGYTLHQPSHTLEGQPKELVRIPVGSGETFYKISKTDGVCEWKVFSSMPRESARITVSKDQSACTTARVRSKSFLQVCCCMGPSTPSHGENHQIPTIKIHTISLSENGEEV
From the text: Canine prostate strips were used in vitro as previously described (Hieble, J. P., Boyce, Caine, M., Fed Proc., 45: 2609-2614 (1986)), to determine antagonist potencies phenylephrine-induced contractions.
Functional assays indicative of pharmacologically defined α-1 adrenoreceptors were used to further characterize compounds. Inhibition of phenylephrine (PE)-induced contraction of canine prostate smooth muscle can be correlated with α-1A adrenoreceptor activation. […] For each of these models, agonist dose response curves were repeated against increasing concentrations of test agent to derive a Schild plot [log ([…]) against log (molarity of test agent)] to determine the pA2.
Canine prostate strips were used in vitro as previously described (Hieble, J. P., Boyce, A. J. and Caine, M., Fed. Proc., 45: 2609-2614 (1986)), to determine antagonist potencies against phenylephrine-induced contractions.

| SMILES | pKi [1] | In Vitro Characterization (pA2) Dog Prostate [2] | Ki [1] |
| --- | --- | --- | --- |
| COc1cccc2c1[C@@H]1CCN(CCCCn3c(=O)[nH]c4c(sc5ccccc54)c3=O)C[C@H]1CO2 (relative stereo) [Example 87, 3-[4-((±)-trans-10-Methoxy-1,3,4,4a,5,10b-hexahydro-2H-[1]-benzopyrano[3,4-c]pyrido-3-yl)butyl]-[1]-benzthieno[3,2-d]pyrimidine-2,4(1H,3H)-dione hydrochloride] | 9.64 |  |  |
| COc1cccc2c1[C@@H]1CCN(CCCCn3c(=O)[nH]c4c(sc5cccnc54)c3=O)C[C@H]1CO2 (relative stereo) [Example 88, 3-[4-((±)-trans-10-Methoxy-1,3,4,4a,5,10b-hexahydro-2H-[1]-benzopyrano[3,4-c]pyrido-3-yl)butyl]-pyrido[2',3':4,5]thieno[3,2-d]pyrimidine-2,4(1H,3H)-dione hydrochloride] | 9.96 | 8.09 |  |
| COc1cc2[nH]c(=O)n(CCN3CC[C@H]4c5c(OC)cccc5OC[C@@H]4C3)c(=O)c2cc1OC (relative stereo) [Example 91, 3-[2-((±)-trans-10-Methoxy-1,3,4,4a,5,10b-hexahydro-2H-[1]-benzopyrano[3,4-c]pyrido-3-yl)ethyl]-6,7-dimethoxy-quinazoline-2,4(1H,3H)-dione hydrochloride] |  |  | 0.066 nM |
| COc1ccc2c(n1)sc1c(=O)n(CCCCN3C[C@@H]4COc5cccc(OC)c5[C@@H]4C3)c(=O)[nH]c12 [Example 33, hydrochloride] |  |  | 0.082 nM |
